Patent US9211296B2, “Therapeutic compounds for blocking DNA synthesis of POX viruses” (priority 2007, dated 2015)
pEC50, pIC50: −log10 of the molar value. Read-outs that look alike come from different tables or passages of the source.

Legend:
vaccinia virus WR [1] = assay type: cell-based
vaccinia virus WR [2] = assay: microbe, parasite or virus in culture; assay type: cell-based
vaccinia virus WR [3] = assay: microbe, parasite or virus in culture; assay type: cell-based; remark: listed apart in the source
[4] = target: vaccinia virus DNA synthesis (viral DNA polymerase and its associated factors) (Vaccinia virus, UniProt P06856); assay type: biochemical
BS-C-1 cells = assay: WST-1 cytotoxicity assay; conditions: for tox 20 h TC50 / tox 120 h TC50 / tox 72 h TC50: Table 6; for CC50: Table 4
WST-1 cytotoxicity assay = conditions: African green monkey, BS-C-1 cells
vaccinia virus = assay type: cell-based
[5] = Orthopoxvirus vaccinia, 20 h, read-out: Cell Protection 20 h EC50
[6] = Orthopoxvirus vaccinia, BSC-1, 20 h, read-out: cell prot EC50
[7] = Orthopoxvirus vaccinia, 20 h, read-out: Plaque Reduction 20 h EC50
[8] = Orthopoxvirus vaccinia, BSC-1, 20 h, read-out: plaque red EC50
[9] = read-out: DNA Synthesis Inhibition IC50
[10] = read-out: Cytotoxicity 20 h CC50, 20 h
[11] = read-out: Cytotoxicity 120 h CC50, 120 h
[12] = read-out: Cytotoxicity 72 h CC50, 72 h
Wherever Blocking the replication of vaccinia virus in cells is given: test concentration or dose not given here.

| SMILES | Effect of dsDNA (vaccinia virus WR [1]) | trapped by dsDNA (vaccinia virus WR [1]) | pEC50 (vaccinia virus WR [2]; [5]) | pEC50 (vaccinia virus WR [2]; [6]) | pEC50 (vaccinia virus WR [3]; [7]) | pEC50 (vaccinia virus WR [3]; [8]) | pIC50 [4, 9] | pIC50 ([4]; read-out: DNA synth IC50) | tox 20 h TC50 (BS-C-1 cells; 20 h) [µM] | CC50 (BS-C-1 cells; [10]) [µM] | Selectivity Index SI (vaccinia virus WR [2]) | selectivity index (vaccinia virus WR [2]) | tox 120 h TC50 (BS-C-1 cells; 120 h) [µM] | CC50 (BS-C-1 cells; [11]) [µM] | Blocking the replication of vaccinia virus in cells (vaccinia virus) | other results |
| --- | --- | --- | --- | --- | --- | --- | --- | --- | --- | --- | --- | --- | --- | --- | --- | --- |
| CCOC(=O)c1c(NC(=O)/C=C/C(=O)O)sc(C)c1-c1ccccc1 [Compound 2] | No | no | 4.52 | 4.52 | 4.60 | 4.60 | 3.43 | 3.43 | 159 | 159 | – | – | – | – | – | – |
| C[C@@]1(CO)[C@H](O)CC[C@@]2(C)[C@H]1CC[C@H]1C[C@@H]3C[C@@]12CC[C@]3(O)CO [Aphidicolin, reference compound] | No | – | 4.74 | – | – | – | – | – | – | – | – | – | – | – | – | – |
| Cc1csc2c(N3CCN(C(=O)NC(C)(C)C)CC3)ncnc12 [Compound 4] | No | no | 4.30 | 4.30 | 4.82 | 4.82 | 4.92 | 4.92 | 157 | 157 | 3.1 | 3.1 | 40 | 40 | – | – |
| Nc1ccn(C[C@@H](CO)OCP(=O)(O)O)c(=O)n1 [Cidofovir, reference compound] | No | no | 3.88 | 3.88 | 4.30 | 4.30 | – | – | >500 | – | >18.9 | – | 300 | 300 | – | tox 72 h TC50 (BS-C-1 cells; 72 h): >500 µM; CC50 (BS-C-1 cells; [12]): > 500 µM; CC50 at 20 h (WST-1 cytotoxicity assay): > 2500 µM |
| CC[n+]1c(-c2ccccc2)c2cc(N)ccc2c2ccc(N)cc21 [Ethidium, reference compound] | Yes | – | 4.00 | – | – | – | – | – | – | – | – | – | – | – | – | – |
| CCNc1nc(SCc2ccc(Cl)cc2)nc2sc3c(c12)CCN(C)C3 [Compound 5] | No | no | 4.35 | 4.38 | 4.82 | 4.82 | 3.89 | 3.89 | 155 | 115 | 2.6 | 2.6 | 5 | 5 | – | – |
| CCN(CC)CCCC(C)Nc1c2ccc(Cl)cc2nc2ccc(OC)cc12 (stereo not drawn) [Quinacrine, reference compound] | Yes | – | 4.77 | – | – | – | – | – | – | – | – | – | – | – | – | – |
| CCn1c2ccccc2c2ccc(/C=N/n3cnnc3)cc21 [Compound 3] | No | no | 4.30 | 4.30 | 4.30 | 4.30 | 3.88 | 3.88 | >200 | > 200 | >4.0 | >4.0 | 3 | 3 | – | tox 72 h TC50 (BS-C-1 cells; 72 h): 36 µM; CC50 (BS-C-1 cells; [12]): 36 µM |
| Nc1ccn([C@@H]2O[C@H](CO)[C@@H](O)[C@@H]2O)c(=O)n1 [Ara-C, reference compound] | Yes | – | – | – | – | – | – | – | – | 16 | – | – | – | – | – | pEC50 (vaccinia virus WR [2]; read-out: Cell Protection 20 h EC50): 6.62; pEC50 (vaccinia virus WR [3]; read-out: Plaque Reduction 20 h EC50): 6.30 |
| Cc1ccc2c(Sc3ccc(Cl)cc3)c(C(=O)O)[nH]c2c1 [Compound 11] | No | no | 3.89 | 3.89 | 4.12 | 4.12 | 4.37 | 4.37 | >200 | > 200 | >1.5 | >1.5 | 120 | 120 | – | tox 72 h TC50 (BS-C-1 cells; 72 h): 174 µM; CC50 (BS-C-1 cells; [12]): 174 µM |
| Cc1c(/N=C/c2cc(Br)cc(Br)c2Br)cccc1C(=O)O [Compound 7] | No | no | 4.00 | 4.00 | 4.12 | 4.12 | 4.59 | 4.59 | >200 | – | >2 | >2 | 20 | – | – | tox 72 h TC50 (BS-C-1 cells; 72 h): 38 µM; CC50 at 20 h (WST-1 cytotoxicity assay): > 200 µM; CC50 at 72 h (WST-1 cytotoxicity assay): 38 µM; CC50 at 120 h (WST-1 cytotoxicity assay): 20 µM |
| COC(=O)c1cccc2c1-c1ccccc1/C2=N\O [Compound 1] | No | no | 5.02 | 5.02 | 5.00 | 5.00 | 3.97 | 3.97 | 127 | 127 | 13.2 | 13.2 | 20 | 20 | – | selectivity index over 72 h (vaccinia virus WR [2]): 3.2 |
| N=C1/C(=C/c2coc3ccccc3c2=O)C(=O)N=C2SC=NN12 [Compound 14] | No | no | 3.73 | 3.73 | 3.82 | 3.82 | 4.12 | 4.12 | >200 | > 200 | >1 | >1 | 50 | 50 | – | tox 72 h TC50 (BS-C-1 cells; 72 h): >200 µM; CC50 (BS-C-1 cells; [12]): > 200 µM |
| CN(C)CC/N=c1\cc(-c2ccccc2)oc2ccc(Cl)cc12 [I, (E)-N-1-(6-chloro-2-phenyl-4H-chromen-4-ylidene)-N2,N2-dimethylethane-1,2-diamine] | – | – | – | – | – | – | – | – | – | – | – | – | – | – | effective in blocking the replication of vaccinia virus in cells | – |
| Oc1ccc([Te]CCNCC[Te]c2ccc(O)cc2)cc1 [XLII, 4,4′-(2,2′-azanediylbis(ethane-2,1-diyl)bis(tellanediyl))diphenol] | – | – | – | – | – | – | – | – | – | – | – | – | – | – | effective in blocking the replication of vaccinia virus in cells | – |
| Cc1ccc2c(Sc3ccc(Cl)cc3)c(C(=O)O)[nH]c2c1 [XIV, 3-(4-chlorophenylthio)-6-methyl-1H-indole-2-carboxylic acid] | – | – | – | – | – | – | – | – | – | – | – | – | – | – | effective in blocking the replication of vaccinia virus in cells | – |
| Cc1cc(N)c2cc(OCCOc3ccc4nc(C)cc(N)c4c3)ccc2n1 [XL, 6,6′-(ethane-1,2-diylbis(oxy))bis(2-methylquinolin-4-amine)] | – | – | – | – | – | – | – | – | – | – | – | – | – | – | effective in blocking the replication of vaccinia virus in cells | – |
| CN(C)c1ccc(-c2cccc(-c3ccc(N(C)C)cc3)[o+]2)cc1 [XXX, 2,6-bis(4-(dimethylamino)phenyl)pyrylium] | – | – | – | – | – | – | – | – | – | – | – | – | – | – | effective in blocking the replication of vaccinia virus in cells | – |
| CCn1c2ccccc2c2ccc(/C=N/n3cnnc3)cc21 [XXIV, (E)-N-((9-ethyl-9H-carbazol-2-yl)methylene)-4H-1,2,4-triazol-4-amine] | – | – | – | – | – | – | – | – | – | – | – | – | – | – | effective in blocking the replication of vaccinia virus in cells | – |
| CC(=O)n1c2ccccc2c2nc(C)sc21 [Compound 15] | No | no | 3.63 | 3.63 | 4.00 | 4.00 | 3.95 | 3.95 | >200 | > 200 | >1 | >1 | 75 | 75 | – | tox 72 h TC50 (BS-C-1 cells; 72 h): >200 µM; CC50 (BS-C-1 cells; [12]): > 200 µM |
| Cc1csc2c(N3CCN(C(=O)NC(C)(C)C)CC3)ncnc12 [XIX, N-tert-butyl-4-(7-methylthieno[3,2-d]pyrimidin-4-yl)piperazine-1-carboxamide] | – | – | – | – | – | – | – | – | – | – | – | – | – | – | effective in blocking the replication of vaccinia virus in cells | – |
| O=S(=O)(c1cc(Cl)ccc1O)c1cc(Cl)ccc1O [XLI, 2,2′-sulfonylbis(4-chlorophenol)] | – | – | – | – | – | – | – | – | – | – | – | – | – | – | effective in blocking the replication of vaccinia virus in cells | – |
| COc1ccc(-c2cc3ccccn3c2C(=O)c2cccnc2)c(OC)c1 [VII, (2-(2,4-dimethoxyphenyl)indolizin-3-yl)(pyridin-3-yl)methanone] | – | – | – | – | – | – | – | – | – | – | – | – | – | – | effective in blocking the replication of vaccinia virus in cells | – |
| CN(C)CCOC(=O)c1ccc2[nH]c3c(c2c1)CSCC3 [XXIX, Thiopyrano[4,3-b]indole-8-carboxylic acid, 1,3,4,5-tetrahydro-, 2-(dimethylamino)ethyl ester (7CI,8CI,9CI)] | – | – | – | – | – | – | – | – | – | – | – | – | – | – | effective in blocking the replication of vaccinia virus in cells | – |
| Cc1cc(OC(=O)c2ccco2)nc(SCc2c(Cl)cccc2Cl)n1 [XII, 2-(2,6-dichlorobenzylthio)-6-methylpyrimidin-4-yl furan-2-carboxylate] | – | – | – | – | – | – | – | – | – | – | – | – | – | – | effective in blocking the replication of vaccinia virus in cells | – |
| O=C(O)Cn1c2ccc(Cl)cc2c2nc3ccccc3nc21 [IX, 6H-Indolo[2,3-b]quinoxaline-6-acetic acid, 9-chloro-(9CI)] | – | – | – | – | – | – | – | – | – | – | – | – | – | – | effective in blocking the replication of vaccinia virus in cells | – |
